The record followed here is patent US10899759B2, “Positive allosteric modulators of the muscarinic acetylcholine receptor M1” (Vanderbilt University, priority 2016, dated 2021).

The target of the experiment is T1, human mAChR M1 (Homo sapiens, UniProt P11229).
T1 construct: host or cells: CHO-K1
T1 sequence (P11229 1-460): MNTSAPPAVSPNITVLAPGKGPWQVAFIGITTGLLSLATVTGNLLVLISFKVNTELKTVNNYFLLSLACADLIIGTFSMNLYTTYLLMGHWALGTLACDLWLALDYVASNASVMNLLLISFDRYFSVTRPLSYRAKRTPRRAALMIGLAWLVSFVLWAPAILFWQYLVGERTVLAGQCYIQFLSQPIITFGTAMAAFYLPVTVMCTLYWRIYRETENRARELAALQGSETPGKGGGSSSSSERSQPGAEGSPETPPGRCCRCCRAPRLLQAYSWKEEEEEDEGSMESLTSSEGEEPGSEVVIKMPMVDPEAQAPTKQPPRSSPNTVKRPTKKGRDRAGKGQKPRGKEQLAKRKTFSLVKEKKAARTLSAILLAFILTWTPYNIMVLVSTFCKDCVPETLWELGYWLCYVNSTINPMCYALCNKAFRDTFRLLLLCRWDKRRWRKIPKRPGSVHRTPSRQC
The experiment is described as follows: mAChR M1 cell-based functional assay (calcium mobilization, Fluo-4, FDSS). The following applies: CHO-K1 cells stably expressing hM1; for Emax: EC20 acetylcholine response, read-out: Human M1 Emax; for EC50: positive allosteric modulator activity as increase in the EC20 acetylcholine response. The method, then: Chinese hamster ovary (CHO-K1) cells stably expressing rat (r)M1 were purchased from the American Type Culture Collection and cultured according to their indicated protocol. […] To make stable rM2, hM2, rM3, hM4, and rM4 cell lines for use in calcium mobilization assays, these cells also were stably transfected with a chimeric G-protein (Gqi5) (provided by B. R. Conklin, University of California, San Francisco) using Lipofectamine 2000. rM1, hM1, rM3, hM3, rM5, and hM5 cells were grown in Ham's F-12 medium containing 10% heat-inactivated fetal bovine serum (FBS), 20 mM HEPES, and 50 μg/mL G418 sulfate. rM2-Gqi5, hM2-Gqi5, and hM4-Gqi5 cells were grown in the same medium also containing 500 μg/mL Hygromycin B. Stable rM4-Gqi5 cells were grown in DMEM containing 10% heat-inactivated FBS, 20 mM HEPES, 400 μg/mL G418 sulfate, and 500 μg/mL Hygromycin B.
For high throughput measurement of agonist-evoked increases in intracellular calcium, CHO-K1 cells stably expressing muscarinic receptors were plated in growth medium lacking G418 and hygromycin at 15,000 cells/20 μL/well in Greiner 384-well black-walled, tissue culture (TC)-treated, clear-bottom plates (VWR). Cells were incubated overnight at 37° C. and 5% CO2. […] Compound master plates were formatted in an 11 point CRC format (1:3 dilutions) in 100% DMSO with a starting concentration of 10 mM using the BRAVO liquid handler (Agilent). Test compound CRCs were then transferred to daughter plates (240 nL) using the Echo acoustic plate reformatter (Labcyte, Sunnyvale, Calif.) and then diluted into assay buffer (40 μL) to a 2× stock using a Thermo Fisher Combi (Thermo Fisher Scientific, Waltham, Mass.).
Calcium flux was measured using the Functional Drug Screening System (FDSS) 6000 (Hamamatsu Corporation, Tokyo, Japan) as an increase in the fluorescent static ratio. Compounds were applied to cells (20 μL, 2×) using the automated system of the FDSS 6000 at 4 s into the 300 s protocol and the data were collected at 1 Hz. […] Agonist activity was analyzed as a concentration-dependent increase in calcium mobilization upon compound addition. Positive allosteric modulator activity was analyzed as a concentration-dependent increase in the EC20 acetylcholine response. Antagonist activity was analyzed as a concentration-dependent decrease in the EC80 acetylcholine response. Concentration-response curves were generated using a four-parameter logistical equation in XLfit curve fitting software (IDBS, Bridgewater, N.J.) for Excel (Microsoft, Redmond, Wash.) or Prism (GraphPad Software, Inc., San Diego, Calif.).
The compound numbers correspond to the compound numbers used in Table 1.
(In general: Calcium assays in cells follow changes in intracellular calcium, usually with a dye or a luminescent sensor.)

With `Cn1ccc2c(Cc3ccc(-c4cscn4)cc3)cc(C(=O)N[C@H]3CCOC3)nc21` [Compound 33, 1-methyl-N-[(3S)-tetrahydrofuran-3-yl]-4-[(4-thiazol-4-ylphenyl)methyl]pyrrolo[2,3-b]pyridine-6-carboxamide], the maximal response (Emax) was determined as 50.6% and the EC50 worked out at 2910 nM.

With `Cc1nc(-c2ccc(Cc3cc(C(=O)NC4CCOCC4)nc4sccc34)cc2)co1` [Compound 4, 4-[[4-(2-methyloxazol-4-yl)phenyl]methyl]-N-tetrahydropyran-4-yl-thieno[2,3-b]pyridine-6-carboxamide], the maximal effect (Emax) was 57.9% and the EC50 was 140 nM.

Regarding `Cn1ccc2c(Cc3ccc(-n4cccn4)cc3)cc(C(=O)NC3CCOCC3)nc21` [Compound 18, 1-methyl-4-[(4-pyrazol-1-ylphenyl)methyl]-N-tetrahydropyran-4-yl-pyrrolo[2,3-b]pyridine-6-carboxamide], the Emax stood at 73.1% and the EC50 was found to be 180 nM.

On to `Cn1cc(-c2ccc(Cc3cc(C(=O)NC4CCOCC4)nc4sccc34)cn2)cn1` [Compound 114, 4-[[6-(1-methylpyrazol-4-yl)-3-pyridyl]methyl]-N-tetrahydropyran-4-yl-thieno[2,3-b]pyridine-6-carboxamide], for which the maximal response (Emax) stood at 38.6% and the half-maximal effective concentration (EC50) amounted to 10 nM.

As for `COCC(C)NC(=O)c1cc(Cc2ccc(-n3cccn3)cc2)c2ccsc2n1` (stereo not shown) [Compound 86, N-(2-methoxy-1-methyl-ethyl)-4-[(4-pyrazol-1-ylphenyl)methyl]thieno[2,3-b]pyridine-6-carboxamide], the Emax was found to be 62% and the concentration for a half-maximal effect (EC50) was 690 nM.

`Cc1nc(-c2ccc(Cc3cc(C(=O)N[C@H]4CCOC[C@@H]4O)nc4sccc34)cc2)co1` [Compound 130, N-[(3R,4S)-3-hydroxytetrahydropyran-4-yl]-4-[[4-(2-methyloxazol-4-yl)phenyl]methyl]thieno[2,3-b]pyridine-6-carboxamide]: the Emax worked out at 41.4% and the EC50 was 60 nM.

With `Cn1cc(-c2ccc(Cc3cc(C(=O)NC4COC4)nc4sccc34)cn2)cn1` [Compound 124, 4-[[6-(1-methylpyrazol-4-yl)-3-pyridyl]methyl]-N-(oxetan-3-yl)thieno[2,3-b]pyridine-6-carboxamide], the Emax is 53.5% and the EC50 worked out at 40 nM.

On to `Cn1ccc(-c2ccc(Cc3cc(C(=O)N[C@H]4CCCC[C@@H]4O)nc4c3ccn4C)cn2)n1` [Compound 155, N-[(1S,2S)-2-hydroxycyclohexyl]-1-methyl-4-[[6-(1-methylpyrazol-3-yl)-3-pyridyl]methyl]pyrrolo[2,3-b]pyridine-6-carboxamide], for which the Emax came to 65.7% and the concentration giving a half-maximal response (EC50) was found to be 110 nM.

In the case of `Cc1nc(-c2ccc(Cc3cc(C(=O)N[C@H]4CCC[C@@H]4O)nc4c3ccn4C)cc2)co1` [Compound 56, N-[(1S,2S)-2-hydroxycyclopentyl]-1-methy1-4-[[4-(2-methyloxazol-4-yl)phenyl]methyl]pyrrolo[2,3-b]pyridine-6-carboxamide], the maximum response (Emax) stood at 84% and the concentration giving a half-maximal response (EC50) was determined as 270 nM.

In the case of `Cn1ccc(-c2ccc(Cc3cc(C(=O)NCC4CCOCC4)nc4sccc34)cn2)n1` [Compound 107, 4-[[6-(1-methylpyrazol-3-yl)-3-pyridyl]methyl]-N-(tetrahydropyran-4-ylmethyl)thieno[2,3-b]pyridine-6-carboxamide], the maximum response (Emax) worked out at 57.3% and the EC50 was 90 nM.

For `Cn1ccc(-c2ccc(Cc3cc(C(=O)N[C@H]4CC[C@@H]4O)nc4c3ccn4C)cn2)n1` [Compound 156, N-[(1S,2S)-2-hydroxycyclobutyl]-1-methyl-4-[[6-(1-methylpyrazol-3-yl)-3-pyridyl]methyl]pyrrolo[2,3-b]pyridine-6-carboxamide], the maximal effect (Emax) was determined as 74.2% and the EC50 came out at 920 nM.

Consider `Cn1ccc(-c2ccc(Cc3cc(C(=O)NC4CCOC(C)(C)C4)nc4c3ccn4C)cn2)n1` (stereo not shown) [Compound 146, N-(2,2-dimethyltetrahydropyran-4-yl)-1-methyl-4-[[6-(1-methylpyrazol-3-yl)-3-pyridyl]methyl]pyrrolo[2,3-b]pyridine-6-carboxamide], for which the maximal response (Emax) was 79.3% and the EC50 turned out to be 520 nM.

Turning to `CC1CC(NC(=O)c2cc(Cc3ccc(-c4cnn(C)c4)nc3)c3ccsc3n2)CC(C)O1` (stereo not shown) [Compound 116, N-(2,6-dimethyltetrahydropyran-4-yl)-4-[[6-(1-methylpyrazol-4-yl)-3-pyridyl]methyl]thieno[2,3-b]pyridine-6-carboxamide], the maximum response (Emax) worked out at 54.8% and the EC50 is 50 nM.

As for `COCCNC(=O)c1cc(Cc2ccc(-c3coc(C)n3)cc2)c2ccsc2n1` [Compound 143, N-(2-methoxyethyl)-4-[[4-(2-methyloxazol-4-yl)phenyl]methyl]thieno[2,3-b]pyridine-6-carboxamide], the Emax amounted to 60.8% and the EC50 came out at 280 nM.

For `CC1COCCC1NC(=O)c1cc(Cc2ccc(-n3cccn3)cc2)c2ccsc2n1` (stereo not shown) [Compound 75], the maximal response (Emax) amounted to 60.7% and the EC50 worked out at 490 nM.

As to `CCn1ccc2c(Cc3ccc(-n4cccn4)cc3)cc(C(=O)N[C@H]3CCOC[C@@H]3O)nc21` [Compound 9, 1-ethyl-N-[(3R,4S)-3-hydroxytetrahydropyran-4-yl]-4-[(4-pyrazol-1-ylphenyl)methyl]pyrrolo[2,3-b]pyridine-6-carboxamide], the maximal response (Emax) is 64.7% and the half-maximal effective concentration (EC50) worked out at 20 nM.

Turning to `Cc1nc(-c2ccc(Cc3cc(C(=O)NC4CCOC(C)(C)C4)nc4sccc34)cc2)co1` (stereo not shown) [Compound 131, N-(2,2-dimethyltetrahydropyran-4-yl)-4-[[4-(2-methyloxazol-4-yl)phenyl]methyl]thieno[2,3-b]pyridine-6-carboxamide], the Emax is 33.3%.

With `Cn1cc(-c2ccc(Cc3cc(C(=O)N[C@H]4CCOC4)nc4sccc34)cn2)cn1` [Compound 120, 4-[[6-(1-methylpyrazol-4-yl)-3-pyridyl]methyl]-N-[(3S)-tetrahydrofuran-3-yl]thieno[2,3-b]pyridine-6-carboxamide], the maximal effect (Emax) is 56.9% and the concentration giving a half-maximal response (EC50) turned out to be 80 nM.

As for `CCn1ccc2c(Cc3ccc(-n4cccn4)cc3)cc(C(=O)N[C@H]3CCCC[C@@H]3O)nc21` [Compound 10, 1-ethyl-N-[(1S,2S)-2-hydroxycyclohexyl]-4-[(4-pyrazol-1-ylphenyl)methyl]pyrrolo[2,3-b]pyridine-6-carboxamide], the maximum response (Emax) came to 69.9% and the EC50 is 60 nM.

Consider `COCC(C)NC(=O)c1cc(Cc2ccc(-c3coc(C)n3)cc2)c2ccsc2n1` (stereo not shown) [Compound 144, N-(2-methoxy-1-methyl-ethyl)-4-[[4-(2-methyloxazol-4-yl)phenyl]methyl]thieno[2,3-b]pyridine-6-carboxamide], for which the Emax is 64.2% and the 50% effective concentration (EC50) stood at 950 nM.

Take `Cn1ccc(-c2ccc(Cc3cc(C(=O)N[C@@H]4CC[C@H]4O)nc4c3ccn4C)cc2)n1` [Compound 41, N-[(1R,2R)-2-hydroxycyclobutyl]-1-methy1-4-[[4-(1-methylpyrazol-3-yl)phenyl]methyl]pyrrolo[2,3-b]pyridine-6-carboxamide]: the Emax was 78% and the EC50 was 1050 nM.

As to `Cn1ccc2c(Cc3ccc(-c4cscn4)cc3)cc(C(=O)NC3COC3)nc21` [Compound 35, 1-methyl-N-(oxetan-3-yl)-4-[(4-thiazol-4-ylphenyl)methyl]pyrrolo[2,3-b]pyridine-6-carboxamide], the Emax was 40.2% and the EC50 worked out at 1230 nM.

A word on the Emax: it is the maximal effect, on the per cent scale that the assay sets. The term EC50 denotes the concentration giving half of the maximal effect.
